# Laboratory results as given in ChEMBL document CHEMBL5465560, “Selectivity Literature for EUbOPEN Chemogenomic Library” (2024).
# What was measured:
# [1] = biological target: T1, Tyrosine-protein kinase Mer (Homo sapiens) (UniProt Q12866); test: Selectivity interaction (Kinase panel (Z-LYTE Assay)) EUB0001632a MERTK; conditions: at 10 µM
# T1 sequence (whole entry): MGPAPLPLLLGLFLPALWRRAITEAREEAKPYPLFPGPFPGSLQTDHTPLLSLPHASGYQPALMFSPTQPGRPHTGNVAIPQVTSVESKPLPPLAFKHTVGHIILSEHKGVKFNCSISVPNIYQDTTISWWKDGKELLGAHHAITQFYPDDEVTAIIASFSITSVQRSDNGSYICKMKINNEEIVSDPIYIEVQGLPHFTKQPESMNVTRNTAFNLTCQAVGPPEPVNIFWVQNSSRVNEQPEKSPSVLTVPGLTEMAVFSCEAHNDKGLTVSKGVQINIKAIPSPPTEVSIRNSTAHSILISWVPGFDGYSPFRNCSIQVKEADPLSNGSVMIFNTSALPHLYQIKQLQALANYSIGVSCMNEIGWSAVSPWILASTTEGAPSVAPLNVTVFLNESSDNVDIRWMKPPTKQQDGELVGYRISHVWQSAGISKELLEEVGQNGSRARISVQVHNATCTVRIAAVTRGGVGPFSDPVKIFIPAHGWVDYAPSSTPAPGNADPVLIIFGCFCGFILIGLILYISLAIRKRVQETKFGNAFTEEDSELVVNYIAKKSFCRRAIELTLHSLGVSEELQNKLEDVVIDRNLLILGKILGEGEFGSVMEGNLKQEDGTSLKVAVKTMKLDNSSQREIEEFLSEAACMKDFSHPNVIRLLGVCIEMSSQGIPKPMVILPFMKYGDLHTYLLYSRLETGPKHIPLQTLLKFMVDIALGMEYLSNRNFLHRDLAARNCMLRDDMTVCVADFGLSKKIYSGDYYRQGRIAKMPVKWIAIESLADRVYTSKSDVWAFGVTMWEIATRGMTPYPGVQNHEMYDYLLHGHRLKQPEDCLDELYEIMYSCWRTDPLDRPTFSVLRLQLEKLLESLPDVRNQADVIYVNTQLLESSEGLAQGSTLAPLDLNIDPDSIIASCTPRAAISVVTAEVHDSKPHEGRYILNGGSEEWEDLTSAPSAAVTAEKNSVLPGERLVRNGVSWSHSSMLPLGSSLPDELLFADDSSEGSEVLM
# [2] = biological target: T2, Tyrosine-protein kinase ZAP-70 (Homo sapiens) (UniProt P43403); test: Selectivity interaction (KinomeScan (DiscoverX)) EUB0001049a ZAP70; conditions: at 1 µM
# T2 sequence (whole entry): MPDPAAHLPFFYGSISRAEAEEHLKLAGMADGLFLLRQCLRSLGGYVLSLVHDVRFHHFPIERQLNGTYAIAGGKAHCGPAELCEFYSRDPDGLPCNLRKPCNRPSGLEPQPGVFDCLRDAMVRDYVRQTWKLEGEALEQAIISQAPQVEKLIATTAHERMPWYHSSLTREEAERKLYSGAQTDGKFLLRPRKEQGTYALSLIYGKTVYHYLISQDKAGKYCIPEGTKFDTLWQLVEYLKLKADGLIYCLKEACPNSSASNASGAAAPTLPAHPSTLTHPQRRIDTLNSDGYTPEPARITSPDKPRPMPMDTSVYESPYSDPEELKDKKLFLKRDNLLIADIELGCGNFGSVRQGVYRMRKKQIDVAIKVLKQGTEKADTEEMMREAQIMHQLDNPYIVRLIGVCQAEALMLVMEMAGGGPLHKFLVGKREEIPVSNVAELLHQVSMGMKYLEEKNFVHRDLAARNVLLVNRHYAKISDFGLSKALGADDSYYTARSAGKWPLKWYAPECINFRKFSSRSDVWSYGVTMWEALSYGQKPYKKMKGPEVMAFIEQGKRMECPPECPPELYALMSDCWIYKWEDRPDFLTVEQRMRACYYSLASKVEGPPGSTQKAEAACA
# [3] = biological target: RAC-alpha serine/threonine-protein kinase (Homo sapiens, UniProt P31749); test: Selectivity interaction (Upstate Kinase Profiler service (Millipore)) EUB0000056c AKT1; conditions: at 1 µM
# Sequence of RAC-alpha serine/threonine-protein kinase (P31749 whole entry): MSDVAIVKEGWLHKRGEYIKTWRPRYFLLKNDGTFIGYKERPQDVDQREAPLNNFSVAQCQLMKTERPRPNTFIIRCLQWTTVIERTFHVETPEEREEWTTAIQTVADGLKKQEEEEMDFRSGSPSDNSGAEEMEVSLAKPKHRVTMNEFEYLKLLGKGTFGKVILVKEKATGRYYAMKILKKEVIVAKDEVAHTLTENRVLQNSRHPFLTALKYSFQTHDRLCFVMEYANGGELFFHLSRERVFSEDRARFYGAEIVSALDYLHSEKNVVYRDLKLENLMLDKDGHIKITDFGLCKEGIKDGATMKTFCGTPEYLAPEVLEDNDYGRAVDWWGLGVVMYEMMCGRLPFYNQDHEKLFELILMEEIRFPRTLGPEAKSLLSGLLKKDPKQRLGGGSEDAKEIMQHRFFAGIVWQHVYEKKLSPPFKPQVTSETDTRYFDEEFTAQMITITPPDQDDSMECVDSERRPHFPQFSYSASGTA
# [4] = biological target: CDK7/Cyclin H/MNAT1 (Homo sapiens) (UniProt P51946+P50613+P51948); test: Selectivity interaction (ProQinase) EUB0000171b CDK7; format: protein-complex assay
# [5] = biological target: Serine/threonine-protein kinase WNK3 (Homo sapiens) (UniProt Q9BYP7); test: Selectivity interaction (ActivX KiNativ screen (ex vivo kinase selectivity in human PBMCs)) EUB0001619a WNK3; format: cell-based; conditions: PBMC, at 1 µM
# [6] = biological target: Ribosomal protein S6 kinase alpha-5 (Homo sapiens) (UniProt O75582); test: Selectivity interaction (ActivX KiNativ screen (ex vivo kinase selectivity in human PBMCs)) EUB0001619a RPS6KA5; format: cell-based; conditions: PBMC, at 1 µM
# Sequence of Ribosomal protein S6 kinase alpha-5 (Homo sapiens) (O75582 whole entry, looked up): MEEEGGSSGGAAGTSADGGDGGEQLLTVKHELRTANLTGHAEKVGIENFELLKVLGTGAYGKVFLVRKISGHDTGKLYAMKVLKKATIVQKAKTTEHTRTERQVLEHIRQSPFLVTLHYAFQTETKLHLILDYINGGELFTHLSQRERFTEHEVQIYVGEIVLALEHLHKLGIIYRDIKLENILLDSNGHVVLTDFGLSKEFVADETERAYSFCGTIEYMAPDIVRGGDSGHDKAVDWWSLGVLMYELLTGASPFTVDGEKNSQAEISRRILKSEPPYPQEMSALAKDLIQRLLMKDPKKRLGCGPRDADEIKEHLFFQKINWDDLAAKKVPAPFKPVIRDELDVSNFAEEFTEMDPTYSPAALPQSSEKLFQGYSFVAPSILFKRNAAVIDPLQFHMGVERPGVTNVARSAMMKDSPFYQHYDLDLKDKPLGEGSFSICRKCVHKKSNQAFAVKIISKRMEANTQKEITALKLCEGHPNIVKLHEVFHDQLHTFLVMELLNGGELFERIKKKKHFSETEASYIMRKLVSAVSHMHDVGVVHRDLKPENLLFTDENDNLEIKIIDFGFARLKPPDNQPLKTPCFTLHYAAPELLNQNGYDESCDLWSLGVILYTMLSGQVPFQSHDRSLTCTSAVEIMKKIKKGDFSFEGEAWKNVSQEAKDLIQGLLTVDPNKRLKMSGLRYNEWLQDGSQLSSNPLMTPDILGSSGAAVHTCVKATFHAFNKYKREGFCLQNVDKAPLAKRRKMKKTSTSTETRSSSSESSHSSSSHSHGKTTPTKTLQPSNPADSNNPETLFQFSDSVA
# [7] = biological target: AP2-associated protein kinase 1 (Homo sapiens, UniProt Q2M2I8); test: Selectivity interaction (KinomeScan (DiscoverX)) EUB0000607a AAK1; conditions: at 10 µM
# Sequence of AP2-associated protein kinase 1 (Q2M2I8 whole entry, looked up): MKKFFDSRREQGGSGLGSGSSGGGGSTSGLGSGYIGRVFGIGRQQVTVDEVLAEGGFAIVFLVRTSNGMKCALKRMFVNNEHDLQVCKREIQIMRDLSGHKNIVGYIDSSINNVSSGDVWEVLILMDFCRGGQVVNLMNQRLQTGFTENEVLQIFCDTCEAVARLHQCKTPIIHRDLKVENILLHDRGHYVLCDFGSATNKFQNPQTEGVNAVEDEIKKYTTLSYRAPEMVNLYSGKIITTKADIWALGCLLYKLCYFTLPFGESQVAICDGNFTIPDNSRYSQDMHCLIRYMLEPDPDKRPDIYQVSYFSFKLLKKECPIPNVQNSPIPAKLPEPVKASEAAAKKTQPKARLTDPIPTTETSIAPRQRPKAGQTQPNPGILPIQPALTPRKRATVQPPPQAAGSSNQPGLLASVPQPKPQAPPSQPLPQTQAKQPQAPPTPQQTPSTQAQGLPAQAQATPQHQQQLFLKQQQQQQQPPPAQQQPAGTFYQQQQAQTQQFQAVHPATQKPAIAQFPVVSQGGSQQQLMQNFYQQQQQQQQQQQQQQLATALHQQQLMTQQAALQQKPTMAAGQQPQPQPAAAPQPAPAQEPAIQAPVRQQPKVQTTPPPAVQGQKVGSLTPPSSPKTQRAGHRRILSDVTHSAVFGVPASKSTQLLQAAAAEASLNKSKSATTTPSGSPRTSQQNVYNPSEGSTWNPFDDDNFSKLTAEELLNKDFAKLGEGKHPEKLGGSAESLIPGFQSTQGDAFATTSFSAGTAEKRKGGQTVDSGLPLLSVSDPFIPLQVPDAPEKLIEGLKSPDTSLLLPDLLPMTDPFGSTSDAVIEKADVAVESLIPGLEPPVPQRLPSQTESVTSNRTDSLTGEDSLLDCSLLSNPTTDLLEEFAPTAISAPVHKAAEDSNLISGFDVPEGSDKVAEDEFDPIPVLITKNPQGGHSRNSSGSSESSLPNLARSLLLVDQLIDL
# [8] = biological target: T3, Serine/threonine-protein kinase ULK3 (Homo sapiens) (UniProt Q6PHR2); test: Selectivity interaction (ActivX KiNativ screen (kinase selectivity in THP-1 cell lysates)) EUB0000639a ULK3; format: subcellular; conditions: lysate, at 0.04 µM
# T3 sequence (whole entry): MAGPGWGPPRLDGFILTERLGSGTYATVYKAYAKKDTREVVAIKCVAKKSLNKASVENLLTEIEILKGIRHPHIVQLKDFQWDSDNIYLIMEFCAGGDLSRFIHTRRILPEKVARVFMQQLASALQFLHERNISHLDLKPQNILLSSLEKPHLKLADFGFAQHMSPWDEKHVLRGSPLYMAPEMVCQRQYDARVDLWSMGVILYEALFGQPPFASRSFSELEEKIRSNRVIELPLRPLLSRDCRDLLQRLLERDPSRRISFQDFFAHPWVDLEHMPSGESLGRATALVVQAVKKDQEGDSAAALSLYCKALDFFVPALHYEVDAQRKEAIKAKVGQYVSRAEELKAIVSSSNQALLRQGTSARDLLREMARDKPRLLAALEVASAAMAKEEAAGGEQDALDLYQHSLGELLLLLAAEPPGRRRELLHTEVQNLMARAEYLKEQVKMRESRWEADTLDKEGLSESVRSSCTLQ
# [9] = biological target: G protein-coupled receptor kinase 4 (Homo sapiens) (UniProt P32298); test: Selectivity interaction (Kinase panel (Invitrogen)) EUB0000639a GRK4; conditions: at 200 nM
# Sequence of G protein-coupled receptor kinase 4 (Homo sapiens) (P32298 whole entry, looked up): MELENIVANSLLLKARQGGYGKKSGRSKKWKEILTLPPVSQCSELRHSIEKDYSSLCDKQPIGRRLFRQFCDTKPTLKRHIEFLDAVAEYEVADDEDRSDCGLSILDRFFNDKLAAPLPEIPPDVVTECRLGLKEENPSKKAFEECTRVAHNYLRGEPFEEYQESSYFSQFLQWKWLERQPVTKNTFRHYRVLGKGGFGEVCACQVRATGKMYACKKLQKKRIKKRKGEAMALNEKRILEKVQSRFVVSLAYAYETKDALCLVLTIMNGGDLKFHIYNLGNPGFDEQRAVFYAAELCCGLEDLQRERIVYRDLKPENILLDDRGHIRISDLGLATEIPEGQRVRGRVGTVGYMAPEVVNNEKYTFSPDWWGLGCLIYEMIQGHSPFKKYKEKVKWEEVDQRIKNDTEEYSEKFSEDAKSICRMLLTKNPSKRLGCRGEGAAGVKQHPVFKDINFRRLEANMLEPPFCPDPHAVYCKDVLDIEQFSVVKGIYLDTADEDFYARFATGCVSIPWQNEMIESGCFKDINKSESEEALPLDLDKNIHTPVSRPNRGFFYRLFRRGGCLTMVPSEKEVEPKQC
# [10] = biological target: Leukocyte tyrosine kinase receptor (Homo sapiens, UniProt P29376); conditions: at 10 µM
# Sequence of Leukocyte tyrosine kinase receptor (P29376 whole entry): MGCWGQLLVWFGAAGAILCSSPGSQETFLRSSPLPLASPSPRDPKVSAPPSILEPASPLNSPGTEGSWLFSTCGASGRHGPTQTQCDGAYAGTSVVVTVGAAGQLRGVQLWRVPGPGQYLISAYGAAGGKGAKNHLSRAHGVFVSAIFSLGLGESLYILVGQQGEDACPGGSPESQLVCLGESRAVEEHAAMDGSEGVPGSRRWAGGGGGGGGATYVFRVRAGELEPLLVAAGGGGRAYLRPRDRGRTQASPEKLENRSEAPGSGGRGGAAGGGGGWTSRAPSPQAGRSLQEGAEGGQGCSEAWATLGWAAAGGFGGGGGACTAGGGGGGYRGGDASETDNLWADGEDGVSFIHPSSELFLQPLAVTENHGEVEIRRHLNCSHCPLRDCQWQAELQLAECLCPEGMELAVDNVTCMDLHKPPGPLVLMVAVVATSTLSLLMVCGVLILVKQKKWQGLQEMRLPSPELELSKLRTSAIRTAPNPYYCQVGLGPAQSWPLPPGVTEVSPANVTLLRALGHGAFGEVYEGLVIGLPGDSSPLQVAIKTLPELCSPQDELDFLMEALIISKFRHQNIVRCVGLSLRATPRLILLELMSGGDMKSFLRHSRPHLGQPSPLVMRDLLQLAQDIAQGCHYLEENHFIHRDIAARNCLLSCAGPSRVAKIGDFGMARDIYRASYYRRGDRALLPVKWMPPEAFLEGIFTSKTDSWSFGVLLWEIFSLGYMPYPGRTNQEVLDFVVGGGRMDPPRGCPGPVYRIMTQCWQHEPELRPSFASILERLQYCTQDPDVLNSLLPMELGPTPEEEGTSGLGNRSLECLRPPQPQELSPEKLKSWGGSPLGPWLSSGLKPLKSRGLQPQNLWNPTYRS
smiles,measurement,setting,value
Cn1cc(-n2cnc3c(NCc4nc5cc(Cl)c(Cl)cc5[nH]4)nc(N4CCOCC4)nc32)cn1,% of control,[1],4.55%
COc1cc(Nc2nc(C)cc(-c3cnn4nc(OC)ccc34)n2)cc(C(F)(F)F)c1,% of control,[2],95%
Cc1ccc(-c2ccc3c(ccc4sc5c(c43)NC[C@@H](C)NC5=O)n2)cn1,% of inhibition,[3],-3%
C=CC(=O)Nc1cccc(C(=O)Nc2ccc(Nc3cc(-c4[nH]c(SC)nc4C)ccn3)cc2)c1,% of control,[4]; at 1 µM,89%
same,% of control,[4]; at 5 µM,86%
N#Cc1cccc(-c2c[nH]c3ncnc(N4CCOCC4)c23)c1,% of inhibition,[5],-6%
same,% of inhibition,[6],-4%
CNC(=O)Nc1ccc(-c2nc(N3CC4CCC(C3)O4)c3cnn(C4CCC5(CC4)OCCO5)c3n2)cc1,% of control,[7],100%
CC[C@@H]1[C@H](F)C(=O)N[C@@H]1COc1nccc2cc(C(N)=O)c(OC)cc12 [ZIMLOVISERTIB],% of inhibition,[8],-22.9%
same,% of inhibition,[9],-5.8%
CCN(CC)CCCCNc1ncc2cc(-c3cc(OC)cc(OC)c3)c(NC(=O)NC(C)(C)C)nc2n1,% of control,[10],100%
